In publication PMC4639919 (Neurochemical research, 2015):

Biological target: α6β2* nicotinic acetylcholine receptor (α6 subunit) (Rattus norvegicus, UniProt P12390+P43143)
Sequence (P43143 31-493 limits assumed): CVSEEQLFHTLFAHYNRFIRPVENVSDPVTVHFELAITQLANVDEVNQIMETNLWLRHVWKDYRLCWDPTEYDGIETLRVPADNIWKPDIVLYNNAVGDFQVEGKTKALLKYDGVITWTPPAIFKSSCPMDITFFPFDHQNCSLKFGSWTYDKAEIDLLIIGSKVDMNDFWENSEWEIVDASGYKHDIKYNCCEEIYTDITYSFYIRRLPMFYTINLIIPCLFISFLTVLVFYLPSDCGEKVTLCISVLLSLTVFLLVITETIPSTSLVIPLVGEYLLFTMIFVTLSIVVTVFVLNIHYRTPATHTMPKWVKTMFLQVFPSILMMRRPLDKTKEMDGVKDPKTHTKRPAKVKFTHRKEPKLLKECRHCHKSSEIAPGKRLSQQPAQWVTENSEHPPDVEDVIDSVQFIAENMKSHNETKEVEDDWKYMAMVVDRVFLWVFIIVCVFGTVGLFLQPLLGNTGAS
Sequence (P12390 25-500 limits assumed): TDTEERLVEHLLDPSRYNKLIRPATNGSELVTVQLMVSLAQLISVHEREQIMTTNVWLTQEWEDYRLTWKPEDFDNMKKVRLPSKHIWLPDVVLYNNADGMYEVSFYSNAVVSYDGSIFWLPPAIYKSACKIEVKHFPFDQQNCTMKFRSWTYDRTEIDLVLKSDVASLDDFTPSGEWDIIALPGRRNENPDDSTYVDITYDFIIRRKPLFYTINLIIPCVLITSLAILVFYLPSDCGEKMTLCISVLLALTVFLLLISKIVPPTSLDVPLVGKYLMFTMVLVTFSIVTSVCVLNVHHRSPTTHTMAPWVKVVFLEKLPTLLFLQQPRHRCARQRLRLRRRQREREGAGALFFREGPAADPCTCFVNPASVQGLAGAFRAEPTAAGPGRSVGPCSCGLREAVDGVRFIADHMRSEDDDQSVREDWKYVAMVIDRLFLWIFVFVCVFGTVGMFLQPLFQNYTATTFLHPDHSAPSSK

## CC1=CCCN(CCCCCCCCCCN2CCC=C(C)C2)C1 [r-bPiDI, 1,10-bis(3-methyl-5,6-dihydropyridin-1(2H)-yl)decane]
  IC50: 0.0375 ± 0.0187 µM
